Experimental data: patent publication US20040018515A1, “Compositions selective for adenosine diphosphate and methods of using same” (priority 2002, published 2004)
Each block holds one molecule with its values, some of them ahead of it.

Columns and labels:
Assay type in all cases: biochemical
ppERK [1] = test: Minimized ADP aptamer F01-based kinase SPA; design: Initial Rate: unit not given here; conditions: for inhibition of ppERK activity (decreased signal in the ADP SPA): non-biotinylated minimized ADP aptamer on capture probe, FIG. 44-46
Protocol: An ADP aptamer will concentrate the tritiated ADP released by kinase on the surface of the flash plate and generate a signal detectable in a Topcount scintillation counter. For the study presented, minimized ADP aptamer (JD37.98A) (FIG. 42, SEQ ID NO: 1 19) was directly 3′-biotinylated and immobilized onto NEN streptavidin flashplates. Specifically, select assay wells were incubated with 5 pmol of JD37.98A directly 3′-biotinylated aptamer in 25 μl of PBS Buffer:BupH (0.05% tRNA, 0.025% Tween 20) with shaking at 650 RPM for 30 min. Unbound biotinylated aptamer probe was rinsed from the plate with three 1×PBS washes and dried as previously described. In following experiments the production of ^3H-ADP from ^3H-ATP was detected from ppERK using streptavidin coated flash plate wells that were incubated with 60 pmol of MK08.112A biotinylated capture probe in 30 μl of PBS Buffer:BupH (0.05% tRNA, 0.025% Tween 20) for 15 min with shaking at 650 RPM. Unbound probe was removed from the plate with three 1×PBS washes and blotted dry as described above. JD37.98A (150 pmol; not biotinylated) minimized ADP aptamer transcribed with capture probe sequence was added to select wells in 30 μl 1×PBS and incubated for 30 min with shaking at shaking at 650 RPM, Unbound probe was removed with three PBS washes and the plates were blotted dry as described above. Kinase reactions were carried out in a 30 μl final sample volume as follows. Stock 15 nM ppERK enzyme solution was prepared in selection buffer and incubated for 10 min at room temperature. Kinase test reactions were initiated by adding 1 μl test sample, e.g., inhibitor, to 14 μl selection buffer containing 1 mM DTT, […], and 2.7 μM ^3H-ATP and then combining this mixture with an equal volume of 15 nM ppERK enzyme solution. Kinase test reaction was immediately transferred to the appropriate test well and the reaction monitored on a TopCount, ^3H SPA scintillation counter over 900 min.

ppERK [2] = test: ADP aptamer F01-based kinase SPA; conditions: ADP SPA with ADP F01 aptamer; 3H-ATP and MBP; FIG. 34, 35
Excerpt: An ADP aptamer will concentrate the tritiated ADP released by kinase on the surface of the flash plate and generate a scintillation proximity signal detectable in a Topcount instrument.

ppERK [3] = test: 96-well high throughput screening (HTS) ppERK kinase assay
Protocol: A 96-well high throughput screening (HTS) ppERK kinase assay was constructed using the ADP F01 aptamer in an SPA. […] This HTS assay was used to assess the relative inhibitory activity of 100 test compounds at 10 μM concentration (FIG. 37). This HTS assay was performed three times (FIGS. 37A, 37B and 37C).

[4] = Concentration 1.8 (unit not given)
[5] = Concentration 3.6 (unit not given)
[6] = Concentration 18 (unit not given)
[7] = Concentration 90 (unit not given)
[8] = Concentration 180 (unit not given)
[9] = Concentration 0.05 (unit not given)
[10] = Concentration 0.1 (unit not given)
[11] = Concentration 0.5 (unit not given)
[12] = Concentration 2.5 (unit not given)
[13] = Concentration 5 (unit not given)
[14] = FIG. 37A, test compounds at 10 μM, 40 nM ppERK, 1.35 μM 3H-ATP, 10 μM MBP
[15] = Concentration 0.2 (unit not given)
[16] = Concentration 1 (unit not given)
[17] = Concentration 10 (unit not given)

- 20% Reacted Time (ppERK [1]; [4]): 92 min
- Initial Rate (ppERK [1]; [4]): 23.883
- Saturation Time (ppERK [1]; [4]): 460 min
- 20% Reacted Time (ppERK [1]; [5]): 101 min
- Initial Rate (ppERK [1]; [5]): 20.427
- Saturation Time (ppERK [1]; [5]): 505 min
- 20% Reacted Time (ppERK [1]; [6]): 117.2 min
- Initial Rate (ppERK [1]; [6]): 4.716
- Saturation Time (ppERK [1]; [6]): 586 min
- 20% Reacted Time (ppERK [1]; [7]): 128 min
- Initial Rate (ppERK [1]; [7]): 2.8722
- Saturation Time (ppERK [1]; [7]): 640 min
- 20% Reacted Time (ppERK [1]; [8]): 180 min
- Initial Rate (ppERK [1]; [8]): 2.3262
- Saturation Time (ppERK [1]; [8]): 900 min
- inhibition of ppERK activity (decreased signal in the ADP SPA) (ppERK [1]): concentration-dependent inhibition
- inhibition of ppERK (ppERK [2]): concentration-dependent inhibition
Structure (SMILES): Nc1nccc(-c2c(-c3ccc(F)cc3)ncn2C2CCNCC2)n1 [SB220025]

- 20% Reacted Time (ppERK [1]; [9]): 57.8 min
- Initial Rate (ppERK [1]; [9]): 46.949
- Saturation Time (ppERK [1]; [9]): 289 min
- 20% Reacted Time (ppERK [1]; [10]): 59.6 min
- Initial Rate (ppERK [1]; [10]): 48.324
- Saturation Time (ppERK [1]; [10]): 298 min
- 20% Reacted Time (ppERK [1]; [11]): 59.6 min
- Initial Rate (ppERK [1]; [11]): 36.486
- Saturation Time (ppERK [1]; [11]): 298 min
- 20% Reacted Time (ppERK [1]; [12]): 83 min
- Initial Rate (ppERK [1]; [12]): 19.275
- Saturation Time (ppERK [1]; [12]): 415 min
- 20% Reacted Time (ppERK [1]; [13]): 113.6 min
- Initial Rate (ppERK [1]; [13]): 10.772
- Saturation Time (ppERK [1]; [13]): 568 min
- inhibition of ppERK activity (decreased signal in the ADP SPA) (ppERK [1]): concentration-dependent inhibition
- inhibition of ppERK (ppERK [2]): concentration-dependent inhibition
Structure (SMILES): Nc1ncnc2c1c(I)cn2[C@@H]1O[C@H](CO)[C@@H](O)[C@H]1O [ITU]
- reaction rate in the HTS ppERK assay (ppERK [3]; [14]): significantly decreased the reaction rate

Structure (SMILES): CN[C@@H]1C[C@H]2O[C@@](C)([C@@H]1OC)n1c3ccccc3c3c4c(c5c6ccccc6n2c5c31)C(=O)NC4 [staurosporine]
- 20% Reacted Time (ppERK [1]; [10]): 52.4 min
- Initial Rate (ppERK [1]; [10]): 45.419
- Saturation Time (ppERK [1]; [10]): 262 min
- 20% Reacted Time (ppERK [1]; [15]): 70.4 min
- Initial Rate (ppERK [1]; [15]): 40.907
- Saturation Time (ppERK [1]; [15]): 352 min
- 20% Reacted Time (ppERK [1]; [16]): 52.4 min
- Initial Rate (ppERK [1]; [16]): 23.708
- Saturation Time (ppERK [1]; [16]): 262 min
- 20% Reacted Time (ppERK [1]; [13]): 110 min
- Initial Rate (ppERK [1]; [13]): 10.855
- Saturation Time (ppERK [1]; [13]): 550 min
- 20% Reacted Time (ppERK [1]; [17]): 110 min
- Initial Rate (ppERK [1]; [17]): 5.9375
- Saturation Time (ppERK [1]; [17]): 550 min
- reaction rate in the HTS ppERK assay (ppERK [3]; [14]): significantly decreased the reaction rate
- reaction rate in the HTS ppERK assay (ppERK [3]; FIG. 37B (ADP-HH screening)): significantly decreased the reaction rate
- reaction rate in the HTS ppERK assay (ppERK [3]; FIG. 37C (ADP-SPA screening (2nd))): significantly decreased the reaction rate
